Assay results published in ChEMBL document CHEMBL4152340, “Targeting the MDM2-p53 protein-protein interaction with prenylchalcones: Synthesis of a small library and evaluation of potential antitumor activity” (Eur J Med Chem, 2018).
Calls of active or inactive are those of the source. The calls are words filed in the database; no cut-off is given here.

Columns and labels:
HCT-116 [1] = assay: Antiproliferative activity against human HCT116 cells after 48 hrs by SRB assay; type: functional, cell-based; conditions: HCT-116, 48 h
Saccharomyces cerevisiae [2] = assay: Growth inhibition of Saccharomyces cerevisiae expressing empty vector at 1 to 50 uM after 42 hrs by Yeast-based assay; type: organism-based; conditions: in vivo
Saccharomyces cerevisiae [3] = assay: Growth inhibition of Saccharomyces cerevisiae expressing MDM2 at 1 to 50 uM after 42 hrs by Yeast-based assay; type: organism-based; conditions: in vivo
[4] = molecular target: T1, Tumour suppressor p53/oncoprotein Mdm2 (Homo sapiens) (UniProt P04637+Q00987); assay: Inhibition of human MDM2-p53 interaction in Saccharomyces cerevisiae assessed as p53 induced cell growth arrest at 1 to 50 uM after 42 hrs by Yeast-based assay; type: protein assay
Saccharomyces cerevisiae [5] = assay: Growth inhibition of Saccharomyces cerevisiae expressing p53 at 1 to 50 uM after 42 hrs by Yeast-based assay; type: organism-based; conditions: in vivo
[6] = molecular target: T1, Tumour suppressor p53/oncoprotein Mdm2 (Homo sapiens); assay: Inhibition of MDM2-p53 interaction in human HCT116 cells assessed as p53 activation by measuring increase in GADD45 level at 4.2 uM after 48 hrs by Western blot analysis; type: cell-based
MCF7 = assay: Antiproliferative activity against human MCF7 cells after 48 hrs by SRB assay; type: functional, cell-based; conditions: MCF7, 48 h
[7] = molecular target: T1, Tumour suppressor p53/oncoprotein Mdm2 (Homo sapiens); assay: Inhibition of MDM2-p53 interaction in human HCT116 cells assessed as p53 activation by measuring increase in MDM2 expression at 4.2 uM after 48 hrs by Western blot analysis; type: cell-based
HCT-116 [8] = assay: Cell cycle arrest in human HCT116 cells assessed as accumulation at G2/M phase at 4.2 uM after 48 hrs by propidium iodide staining-based flow cytometric analysis; type: functional
HepG2 = assay: Antiproliferative activity against human HepG2 cells after 48 hrs by SRB assay; type: functional, cell-based; conditions: HepG2, 48 h
[9] = Selectivity ratio of IC50 for human HFF to IC50 for human MCF7 cells; type: toxicity; conditions: HFF cells versus MCF7 cells, read-out: Ratio IC50
[10] = molecular target: T1, Tumour suppressor p53/oncoprotein Mdm2 (Homo sapiens); assay: Inhibition of MDM2-p53 interaction in human HCT116 cells assessed as p53 activation by measuring increase in PUMA level at 4.2 uM after 48 hrs by Western blot analysis; type: cell-based
[11] = molecular target: T1, Tumour suppressor p53/oncoprotein Mdm2 (Homo sapiens); assay: Inhibition of MDM2-p53 interaction in human HCT116 cells assessed as p53 activation by measuring increase in p21 level at 4.2 uM after 48 hrs by Western blot analysis; type: cell-based
HCT-116 [12] = assay: Induction of apoptosis in human HCT116 cells at 4.2 uM after 48 hrs by annexin V/FITC-propidium iodide staining-based flow cytometric method; type: functional, cell-based
[13] = molecular target: T1, Tumour suppressor p53/oncoprotein Mdm2 (Homo sapiens); assay: Inhibition of MDM2-p53 interaction in human HCT116 cells assessed as p53 activation by measuring increase in cleaved-PARP level at 4.2 uM after 48 hrs by Western blot analysis; type: cell-based
[14] = molecular target: T1, Tumour suppressor p53/oncoprotein Mdm2 (Homo sapiens); assay: Inhibition of MDM2-p53 interaction in human HCT116 cells assessed as p53 activation by measuring decrease in Bcl-2 level at 4.2 uM after 48 hrs by Western blot analysis; type: cell-based
[15] = Selectivity ratio of IC50 for human HFF to IC50 for human HCT116 cells; type: toxicity; conditions: HFF cells versus HCT116 cells, read-out: Ratio IC50
A-375 = assay: Antiproliferative activity against human A375 cells after 48 hrs by SRB assay; type: functional, cell-based; conditions: A-375, 48 h
[16] = Selectivity ratio of IC50 for human HFF to IC50 for human A375 cells; type: toxicity; conditions: HFF cells versus A375 cells, read-out: Ratio IC50
HCT-116 [17] = assay: Anticlonogenic activity against human HCT116 cells after 11 days by crystal violet staining based assay; type: functional, cell-based; conditions: HCT-116, 264 h
[18] = Selectivity ratio of IC50 for human HFF to IC50 for human HepG2 cells; type: toxicity; conditions: HFF cells versus HepG2 cells, read-out: Ratio IC50
HCT-116 [19] = assay: Induction of mitochondrial ROS generation in human HCT116 cells at 4.2 uM after 48 hrs by MitoSOX dye-based flow cytometric analysis; type: functional, cell-based
Saccharomyces cerevisiae [20] = assay: Growth inhibition of Saccharomyces cerevisiae expressing p53 at 10 uM after 42 hrs by Yeast-based assay; type: organism-based; conditions: in vivo
Saccharomyces cerevisiae [21] = assay: Growth inhibition of Saccharomyces cerevisiae expressing MDM2 at 10 uM after 42 hrs by Yeast-based assay; type: organism-based; conditions: in vivo
Saccharomyces cerevisiae [22] = assay: Growth inhibition of Saccharomyces cerevisiae expressing empty vector at 10 uM after 42 hrs by Yeast-based assay; type: organism-based; conditions: in vivo

T1 sequence (P04637 whole entry, looked up): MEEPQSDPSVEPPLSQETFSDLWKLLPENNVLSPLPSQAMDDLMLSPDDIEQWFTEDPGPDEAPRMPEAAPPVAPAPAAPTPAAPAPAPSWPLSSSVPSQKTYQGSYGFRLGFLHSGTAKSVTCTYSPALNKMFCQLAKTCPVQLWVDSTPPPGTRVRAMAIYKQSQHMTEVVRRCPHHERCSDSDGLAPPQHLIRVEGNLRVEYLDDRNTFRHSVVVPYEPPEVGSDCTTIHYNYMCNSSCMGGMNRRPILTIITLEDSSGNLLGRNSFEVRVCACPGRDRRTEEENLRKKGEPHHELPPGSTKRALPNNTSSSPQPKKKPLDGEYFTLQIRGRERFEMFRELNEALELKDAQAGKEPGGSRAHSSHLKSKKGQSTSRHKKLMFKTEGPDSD
T1 sequence (Q00987 whole entry, looked up): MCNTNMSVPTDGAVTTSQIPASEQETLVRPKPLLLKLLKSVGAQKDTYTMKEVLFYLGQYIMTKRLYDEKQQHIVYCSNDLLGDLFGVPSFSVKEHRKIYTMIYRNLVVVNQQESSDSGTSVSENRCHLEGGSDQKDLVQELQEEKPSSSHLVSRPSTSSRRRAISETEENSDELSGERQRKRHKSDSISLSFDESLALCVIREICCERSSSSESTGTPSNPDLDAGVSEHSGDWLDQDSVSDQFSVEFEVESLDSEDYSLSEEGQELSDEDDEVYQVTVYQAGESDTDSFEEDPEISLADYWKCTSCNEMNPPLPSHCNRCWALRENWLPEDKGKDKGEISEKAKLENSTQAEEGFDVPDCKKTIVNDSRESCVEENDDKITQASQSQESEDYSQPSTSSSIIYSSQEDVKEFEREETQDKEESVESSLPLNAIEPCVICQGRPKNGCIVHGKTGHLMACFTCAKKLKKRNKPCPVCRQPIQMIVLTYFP

COc1cc(OC)c(C(=O)/C=C/c2ccc(OC)c(OC)c2)c(OCC=C(C)C)c1
IC50 (HCT-116 [1]): 5.7 µM

COc1ccc(/C=C/C(=O)c2c(O)cc(OC)cc2OC)cc1 [FLAVOKAWAIN A]
IC50 (HCT-116 [1]): 10.6 µM | growth inhibition (GI) (Saccharomyces cerevisiae [2]): Non-Toxic | growth inhibition (GI) (Saccharomyces cerevisiae [3]): Non-Toxic | inhibition [4]: Active | growth inhibition (GI) (Saccharomyces cerevisiae [5]): Non-Toxic

COc1cc(OC)c(C(=O)/C=C/c2ccc(F)cc2)c(OCC=C(C)C)c1
IC50 (HCT-116 [1]): 3.2 µM

COc1cc(O)c(C(=O)/C=C/c2cc(Cl)cc(Cl)c2)c(OC)c1
IC50 (HCT-116 [1]): 1.9 µM

COc1ccc(/C=C/C(=O)c2c(OCC=C(C)C)cc(OC)c(CC=C(C)C)c2OC)cc1OC
IC50 (HCT-116 [1]): 7.4 µM

COc1cc(OC)c(C(=O)/C=C/c2cccc(OC)c2OC)c(OCC=C(C)C)c1
IC50 (HCT-116 [1]): 11.7 µM | growth inhibition (GI) (Saccharomyces cerevisiae [2]): Non-Toxic | growth inhibition (GI) (Saccharomyces cerevisiae [3]): Non-Toxic | inhibition [4]: Active | growth inhibition (GI) (Saccharomyces cerevisiae [5]): Non-Toxic

COc1cc(O)c(C(=O)/C=C/c2ccc(OC)c(OC)c2)c(OC)c1
IC50 (HCT-116 [1]): 27.6 µM

COc1cc(O)c(C(=O)/C=C/c2cccc(OC)c2OC)c(OC)c1CC=C(C)C
IC50 (HCT-116 [1]): 29.5 µM | growth inhibition (GI) (Saccharomyces cerevisiae [2]): Non-Toxic | growth inhibition (GI) (Saccharomyces cerevisiae [3]): Non-Toxic | inhibition [4]: Active | growth inhibition (GI) (Saccharomyces cerevisiae [5]): Non-Toxic

COc1cc(OC)c(C(=O)/C=C/c2cc(Cl)cc(Cl)c2)c(OCC=C(C)C)c1
IC50 (HCT-116 [1]): 24.5 µM

COc1cccc(/C=C/C(=O)c2c(O)c(CC=C(C)C)c(OC)c(CC=C(C)C)c2OC)c1OC
IC50 (HCT-116 [1]): 15.3 µM

COc1cc(O)c(C(=O)/C=C/c2ccc(Br)cc2)c(OC)c1
IC50 (HCT-116 [1]): 14 µM

COc1cccc(/C=C/C(=O)c2c(OC)cc(OC)cc2OCC=C(C)C)c1
IC50 (HCT-116 [1]): 7.7 µM

COc1cc(OC)c(C(=O)/C=C/c2ccc(Br)cc2)c(OCC=C(C)C)c1
IC50 (HCT-116 [1]): 2.1 µM | inhibition [6]: Active | IC50 (MCF7): 2.8 µM | inhibition [7]: Active | Activity (HCT-116 [8]): Active | IC50 (HepG2): 3.6 µM | selectivity ratio [9]: 3 | inhibition [10]: Active | growth inhibition (GI) (Saccharomyces cerevisiae [2]): Non-Toxic | inhibition [11]: Active | Activity (HCT-116 [12]): Active | inhibition [13]: Active | growth inhibition (GI) (Saccharomyces cerevisiae [3]): Non-Toxic | inhibition [4]: Active | inhibition [14]: Active | selectivity ratio [15]: 3 | IC50 (A-375): 1.6 µM | growth inhibition (GI) (Saccharomyces cerevisiae [5]): Non-Toxic | selectivity ratio [16]: 3 | IC50 (HCT-116 [17]): 0.17 µM | selectivity ratio [18]: 3 | Activity (HCT-116 [19]): Active

COc1cc(OCC=C(C)C)c(C(=O)/C=C/c2cc(OC)c(OC)c(OC)c2)c(OC)c1CC=C(C)C
IC50 (HCT-116 [1]): 4.2 µM

COc1cccc(/C=C/C(=O)c2c(O)cc(OC)cc2OC)c1
IC50 (HCT-116 [1]): 3.1 µM

COc1cc(/C=C/C(=O)c2c(OC)cc(OC)cc2OCC=C(C)C)cc(OC)c1
IC50 (HCT-116 [1]): 3.5 µM

COc1ccc(/C=C/C(=O)c2c(OC)cc(OC)cc2OCC=C(C)C)cc1
IC50 (HCT-116 [1]): 7.6 µM

COc1cc(OC)c(C(=O)/C=C/c2cccc(Cl)c2Cl)c(OCC=C(C)C)c1
IC50 (HCT-116 [1]): 1.9 µM

COc1cc(O)c(C(=O)/C=C/c2ccc(F)cc2)c(OC)c1
IC50 (HCT-116 [1]): 4.4 µM

COc1cc(O)c(C(=O)/C=C/c2cccc(Cl)c2Cl)c(OC)c1
IC50 (HCT-116 [1]): 2.7 µM

COc1cc(O)c(C(=O)/C=C/c2cccc(OC)c2OC)c(OC)c1
IC50 (HCT-116 [1]): 3.5 µM

COc1ccc(/C=C/C(=O)c2c(O)cc(OC)cc2OC)c(OC)c1
IC50 (HCT-116 [1]): 50 µM | growth inhibition (GI) (Saccharomyces cerevisiae [2]): Non-Toxic | growth inhibition (GI) (Saccharomyces cerevisiae [3]): Non-Toxic | inhibition [4]: Active | growth inhibition (GI) (Saccharomyces cerevisiae [5]): Non-Toxic

COc1ccc(C2=N[C@@H](c3ccc(Cl)cc3)[C@@H](c3ccc(Cl)cc3)N2C(=O)N2CCNC(=O)C2)c(OC(C)C)c1 [NUTLIN-3]
growth inhibition (GI) (Saccharomyces cerevisiae [20]): Non-Toxic | growth inhibition (GI) (Saccharomyces cerevisiae [21]): Non-Toxic | growth inhibition (GI) (Saccharomyces cerevisiae [22]): Non-Toxic

COc1cc(OC)c(C(=O)/C=C/c2cc(OC)c(OC)c(OC)c2)c(OCC=C(C)C)c1CC=C(C)C
IC50 (HCT-116 [1]): 2.9 µM
